We go through twelve compounds from patent publication US20250197372A1 (priority 2020, published 2025).

Type in all cases: biochemical
Experiment [1] concerns the target recombinant human GAA (acid alpha-glucosidase) (Homo sapiens, UniProt P10253). Nature of the experiment: Acid alpha-glucosidase (GAA) assay (4-methylumbelliferyl-alpha-D-pyranoside substrate, fluorescence). As for the experimental part:
Acid alpha-glucosidase (GAA): To analyze inhibitory effects of a test compound, commercially available recombinant human GAA was incubated with multiple dilutions of test compound for 60 minutes at 37° C. 4-methylumbelliferyl-alpha-D-pyranoside was then introduced to the mixture as the substrate. 1,4-methyllumbelliferone is generated, and after an incubation for 20 minutes at 37° C., the reaction was stopped with the stop solution (0.5M glycine 0.3M NaOH pH 10). 1,4-methyllumbelliferone is detected by fluorescence (excitation at 365 nm, emission at 440 nm). Relative fluorescence compared to untreated enzymatic activity and test compound concentration is plotted as a function of percent inhibition. The IC50 is determined using a 4-PL curve fit as the measure of relative inhibitory activity of each test compound (see Table 3).

The target in experiment [2] is T1, recombinant alpha-glucosidase I (human full-length glucosidase I, Glu 1) (Homo sapiens, UniProt Q13724).
T1 construct: 6-His (C); made in house; host or cells: HEK-293T cells transduced with BacMam virus (virus raised in Sf9)
T1 sequence (Q13724 1-837): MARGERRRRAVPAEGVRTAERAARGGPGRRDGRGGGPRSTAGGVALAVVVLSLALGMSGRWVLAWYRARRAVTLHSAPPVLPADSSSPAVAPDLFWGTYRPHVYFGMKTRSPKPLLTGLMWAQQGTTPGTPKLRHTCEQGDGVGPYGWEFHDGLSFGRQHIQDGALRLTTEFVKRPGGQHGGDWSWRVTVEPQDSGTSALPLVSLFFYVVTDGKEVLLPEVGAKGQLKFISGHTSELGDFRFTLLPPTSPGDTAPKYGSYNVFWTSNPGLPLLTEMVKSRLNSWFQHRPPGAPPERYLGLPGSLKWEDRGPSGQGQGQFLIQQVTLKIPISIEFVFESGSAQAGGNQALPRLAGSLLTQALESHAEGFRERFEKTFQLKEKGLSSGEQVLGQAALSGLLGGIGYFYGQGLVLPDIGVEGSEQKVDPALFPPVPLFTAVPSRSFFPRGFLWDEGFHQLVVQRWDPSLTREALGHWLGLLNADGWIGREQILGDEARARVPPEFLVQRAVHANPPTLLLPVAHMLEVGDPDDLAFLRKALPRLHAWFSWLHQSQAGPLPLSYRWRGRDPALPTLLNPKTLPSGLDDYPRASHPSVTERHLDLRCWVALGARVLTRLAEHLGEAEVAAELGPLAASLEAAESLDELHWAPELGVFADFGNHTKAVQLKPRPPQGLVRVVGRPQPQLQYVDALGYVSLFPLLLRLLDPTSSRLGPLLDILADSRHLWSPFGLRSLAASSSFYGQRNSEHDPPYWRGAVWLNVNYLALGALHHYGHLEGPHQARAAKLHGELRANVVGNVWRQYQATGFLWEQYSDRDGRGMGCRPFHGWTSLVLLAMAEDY
Nature of the experiment: Alpha-glucosidase I assay (Amplex Red glucose detection, synthetic trisaccharide substrate). The text has this:
Preparation of Human Full-length Glucosidase I: The amino acid sequence for human full-length glucosidase I was obtained from UniProt (Q13724). […] The entry vector was cloned into Kemp Proteins' BacMam Destination vector and transformed into chemically competent DH10Bac E. coli cells to produce recombinant glucosidase I bacmids. Bacmid isolates were obtained following two rounds of blue-white screening and they were transfected into Sf9 cells cultivated in serum-free medium (Thermo Fisher Scientific). Four days post-transfection the culture supernatants containing virus were harvested and filter sterilized. […] A multiplicity of infection (MOI, ratio of virus to cells) of 4 was selected. Soluble glucosidase I was detected by anti-His western blots in the soluble cell extract following extraction with 1% V/V NP40 for 30 minutes at 0° C. Productions and purifications of glucosidase I were carried out at scales ranging from 1-liter to 10-liters. […] In another example production at the 10-liter scale was performed in stirred-tank bioreactors at 27° C. and 80 rpm with dissolved oxygen level at 50% of oxygen in air and pH between 7.0 and 7.2. Cells were transduced at MOI of 4 and the cell pellet was harvested at 48 hours post-transduction using centrifugation.
The pellet from a 10-liter culture was lysed by resuspending the pellet into 1-liter of 50 mM NaH2PO4—H2O+300 mM NaCl+10 mM Imidazole+1 mM PMSF+1% V/V NP40 pH 8. The suspension was incubated on ice for 30 minutes and clarified at 500×g and 4° C. The supernatant was collected and clarified at 20,000×g for 30 minutes at 4° C. and the supernatant was collected and filtered through a 0.2 micron filter. […] The column was washed with 20 column volumes (CV) of 50 mM NaH2PO4-H2O+300 mM NaCl+10 mM Imidazole pH 8 and eluted using a linear gradient of 0-60% 50 mM NaH2PO4-H2O+300 mM NaCl+500 mM Imidazole pH 8 over 90 minutes. at 5 mL per minute. Fractions (25 mL) were collected and analyzed by SDS PAGE and Western Blot (reducing anti-His). Fractions containing purified glucosidase I were pooled and dialyzed into storage buffer (20 mM Tris+300 mM NaCl+50 mM L-arginine+10 mM EDTA+0.01% V/V Tween 80 pH 7.5). The final material was filter sterilized and stored at 4° C. and the working dilution confirmed by a use-test in the indicated assay conditions prior to use.
Alpha-glucosidase I Assay: The assay was performed by incubating recombinant alpha-glucosidase I enzyme with multiple dilutions of test compounds for 60 minutes at 37° C. A synthetic trisaccharide substrate analog was then introduced to the mixture for 90 minutes at 37° C. The reaction was then stopped with 1.5M Tris (pH 8). In the absence of inhibition, the terminal glucose of the substrate was hydrolyzed by the enzyme. The D-glucose product was detected using Amplex Red Glucose/Glucose Oxidase Assay Kit (Invitrogen) following the manufacturer's directions where glucose oxidase reacts with D-glucose to form D-gluconolactone and H2O2 which then reacts with the Amplex Red reagent to generate a red-fluorescent oxidation product (560 nm, excitation; 590 nm, emission). […] Percent inhibition is plotted as a function of concentration for each compound, compared to control reactions. The IC50 was determined using a 4-PL curve fit and serves as a measure of relative inhibitory activity of each test compound (see Table 3).

Experiment [3] deals with rat sucrase (partially purified alpha-glucosidase from intestinal rat powder) (Rattus norvegicus, UniProt P23739). Nature of the experiment: Intestinal alpha-glucosidase assay, sucrose substrate (Glucose GO Kit). The protocol:
Intestinal alpha-glucosidases (rat maltase and sucrase): Intestinal alpha-glucosidases act upon 1,4-alpha-glucoside bonds, breaking down disaccharides to glucose. To perform this assay, partially purified alpha-glucosidase from intestinal rat powder was incubated for 60 minutes at 37° C. with multiple dilutions of test compounds. Maltose or Sucrose respectively was then introduced as substrate to the mixture and incubated for 30 minutes at 37° C. The reaction was stopped by a 5-minute incubation at 90° C. and the resultant glucose production is detected using Sigma's Glucose GO Kit. Percent inhibition was then plotted as a function of concentration for each test compound. The IC50 was determined using a 4-PL curve fit and serves as the measure of relative inhibition of each test compound (see Table 3).

Setting [4] is: Glucosidase 1, read-out: Glu 1 IC50.

Read-outs that look alike come from different tables or passages of the source. Some results are limits rather than exact numbers.

Sequence of rat sucrase (partially purified alpha-glucosidase from intestinal rat powder) (P23739 whole entry): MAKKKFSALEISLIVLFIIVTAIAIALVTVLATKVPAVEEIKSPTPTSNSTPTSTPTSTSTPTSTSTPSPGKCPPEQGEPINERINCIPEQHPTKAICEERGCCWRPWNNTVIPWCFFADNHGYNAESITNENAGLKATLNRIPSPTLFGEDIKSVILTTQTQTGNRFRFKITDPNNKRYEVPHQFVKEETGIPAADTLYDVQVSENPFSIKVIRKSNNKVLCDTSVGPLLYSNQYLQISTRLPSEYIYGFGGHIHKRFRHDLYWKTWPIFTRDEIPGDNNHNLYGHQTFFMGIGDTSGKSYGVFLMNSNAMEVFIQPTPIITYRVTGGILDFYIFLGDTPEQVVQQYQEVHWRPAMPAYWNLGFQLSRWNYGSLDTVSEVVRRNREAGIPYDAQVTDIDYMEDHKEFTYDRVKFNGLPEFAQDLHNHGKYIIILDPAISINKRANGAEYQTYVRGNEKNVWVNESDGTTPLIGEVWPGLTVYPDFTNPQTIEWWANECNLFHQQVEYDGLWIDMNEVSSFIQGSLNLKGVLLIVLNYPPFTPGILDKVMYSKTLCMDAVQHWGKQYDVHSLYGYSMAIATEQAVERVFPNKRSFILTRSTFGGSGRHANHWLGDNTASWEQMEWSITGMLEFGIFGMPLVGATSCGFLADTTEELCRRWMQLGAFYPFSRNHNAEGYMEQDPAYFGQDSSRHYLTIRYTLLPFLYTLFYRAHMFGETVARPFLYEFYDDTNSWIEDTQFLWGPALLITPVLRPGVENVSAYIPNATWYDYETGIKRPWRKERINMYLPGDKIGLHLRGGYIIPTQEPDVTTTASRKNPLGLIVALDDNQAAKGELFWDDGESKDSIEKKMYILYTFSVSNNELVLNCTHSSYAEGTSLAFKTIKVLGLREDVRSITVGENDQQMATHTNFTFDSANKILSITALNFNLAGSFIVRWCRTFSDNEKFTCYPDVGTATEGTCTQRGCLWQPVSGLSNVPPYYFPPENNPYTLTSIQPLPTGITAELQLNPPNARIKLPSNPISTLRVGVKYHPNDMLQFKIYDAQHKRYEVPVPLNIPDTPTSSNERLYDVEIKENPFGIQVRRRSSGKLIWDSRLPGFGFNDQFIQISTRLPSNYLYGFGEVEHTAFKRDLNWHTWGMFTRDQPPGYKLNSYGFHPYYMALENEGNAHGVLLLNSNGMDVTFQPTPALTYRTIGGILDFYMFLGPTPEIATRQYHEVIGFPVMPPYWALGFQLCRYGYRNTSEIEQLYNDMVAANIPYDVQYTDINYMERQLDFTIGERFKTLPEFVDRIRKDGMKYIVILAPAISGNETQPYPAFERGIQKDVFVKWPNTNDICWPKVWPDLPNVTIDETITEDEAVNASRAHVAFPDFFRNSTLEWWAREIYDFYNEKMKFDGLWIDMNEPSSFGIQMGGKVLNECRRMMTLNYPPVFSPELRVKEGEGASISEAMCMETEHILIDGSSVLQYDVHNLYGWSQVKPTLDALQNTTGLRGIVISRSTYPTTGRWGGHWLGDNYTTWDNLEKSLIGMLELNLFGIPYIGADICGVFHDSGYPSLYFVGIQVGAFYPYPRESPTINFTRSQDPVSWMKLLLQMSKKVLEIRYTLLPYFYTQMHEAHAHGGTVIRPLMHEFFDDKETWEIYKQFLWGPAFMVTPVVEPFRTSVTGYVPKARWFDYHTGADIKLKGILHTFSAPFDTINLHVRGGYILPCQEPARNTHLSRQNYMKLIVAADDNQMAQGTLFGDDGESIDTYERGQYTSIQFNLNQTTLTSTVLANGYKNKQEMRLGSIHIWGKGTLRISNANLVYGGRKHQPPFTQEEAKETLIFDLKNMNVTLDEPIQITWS

The IC50 is the concentration needed to halve the response being measured. For the compound `[N-]=[N+]=Nc1ccc(NCCc2ccc(CCN3C[C@@H](O)[C@H](O)[C@@H](O)[C@@H]3CO)c3ccccc23)c([N+](=O)[O-])c1` (stereo in doubt) [Compound 1178, (2S,3S,4S,5R)-1-[2-(4-{2-[(4-azido-2-nitrophenyl)amino]ethyl}naphthalen-1-yl)ethyl]-2-(hydroxymethyl)piperidine-3,4,5-triol], the IC50 was found to be 5930 nM in experiment [1], 2730 nM in experiment [2] (setting [4]) and 71500 nM in experiment [3].
Regarding `OC[C@@H]1[C@@H](O)[C@H](O)[C@@H](O)CN1CCc1ccc(CCNc2cc(Cl)cc(-c3cccnn3)c2)cc1` [Compound 1163, (2R,3R,4R,5S)-1-{2-[4-(2-{[3-chloro-5-(pyridazin-3-yl)phenyl]amino}ethyl)phenyl]ethyl}-2-(hydroxymethyl)piperidine-3,4,5-triol], the concentration for half-maximal inhibition (IC50) in experiment [1] stood at 93 nM; in experiment [2], 211 nM; in experiment [3], 584 nM.
As to `[N-]=[N+]=Nc1ccc(NCc2ccc(CN3C[C@H](O)[C@@H](O)[C@H](O)[C@H]3CO)cc2)c([N+](=O)[O-])c1` [Compound 1170, (2R,3R,4R,5S)-1-[(4-{[(4-azido-2-nitrophenyl)amino]methyl}phenyl)methyl]-2-(hydroxymethyl)piperidine-3,4,5-triol], the figures for the IC50 in experiment [1], in experiment [2] (setting [4]) and in experiment [3] were 81 nM, 4 nM and 2 nM, respectively.
For `COc1cc(NCCCCCCN2C[C@H](O)[C@@H](O)[C@H](O)[C@H]2CO)cc(-c2ccccc2)c1` [Compound 1150, (2R,3R,4R,5S)-2-(hydroxymethyl)-1-[6-({5-methoxy-[1,1′-biphenyl]-3-yl}amino)hexyl]piperidine-3,4,5-triol], the values for the IC50 in experiment [1], in experiment [2] (setting [4]) and in experiment [3] were 45 nM, 80 nM and < 1 nM, respectively.
The matching figures for `[N-]=[N+]=Nc1ccc(NCCc2ccc(CCN3C[C@H](O)[C@@H](O)[C@H](O)[C@H]3CO)cc2)c([N+](=O)[O-])c1` [Compound 1200, (2R,3R,4R,5S)-1-[2-(4-{2-[(4-azido-2-nitrophenyl)amino]ethyl}phenyl)ethyl]-2-(hydroxymethyl)piperidine-3,4,5-triol]: 1160 nM, 31 nM and 746 nM.
For `N#Cc1cc(NCCCCCCN2C[C@H](O)[C@@H](O)[C@H](O)[C@H]2CO)cc(-c2ncccn2)c1` [Compound 1130, 3-(pyrimidin-2-yl)-5-({6-[(2R,3R,4R,5S)-3,4,5-trihydroxy-2-(hydroxymethyl)piperidin-1-yl]hexyl}amino)benzonitrile], the IC50 in experiment [1] worked out at 12 nM; in experiment [2] (setting [4]) it was 244 nM; in experiment [3], 30 nM.
The matching figures for `OC[C@@H]1[C@@H](O)[C@H](O)[C@@H](O)CN1CCCCCCNc1ccc(-c2ncco2)cc1Cl` [Compound 1203, (2R,3R,4R,5S)-1-(6-{[2-chloro-4-(1,3-oxazol-2-yl)phenyl]amino}hexyl)-2-(hydroxymethyl)piperidine-3,4,5-triol]: 40 nM, 3 nM and 11 nM.
The matching figures for `CC(=O)Nc1cc(NCCCCCCN2C[C@H](O)[C@@H](O)[C@H](O)[C@H]2CO)cc(-c2ncccn2)c1` [Compound 1125, N-[3-(pyrimidin-2-yl)-5-({6-[(2R,3R,4R,5S)-3,4,5-trihydroxy-2-(hydroxymethyl)piperidin-1-yl]hexyl}amino)phenyl]acetamide]: 80 nM, 337 nM and 92 nM.
On to `Cc1cc(NCc2ccc(CN3C[C@H](O)[C@@H](O)[C@H](O)[C@H]3CO)cc2)cc(-c2cccnn2)c1` [Compound 1052, (2R,3R,4R,5S)-2-(hydroxymethyl)-1-{[4-({[3-methyl-5-(pyridazin-3-yl)phenyl]amino}methyl)phenyl]methyl}piperidine-3,4,5-trio], for which the IC50 was 150 nM in experiment [1], 73 nM in experiment [2] and 60 nM in experiment [3].
In the case of `OC[C@@H]1[C@@H](O)[C@H](O)[C@@H](O)CN1CCc1ccc(CCNc2cc(Cl)cc(C3=COCCO3)c2)cc1` [Compound 1161, (2R,3R,4R,5S)-1-{2-[4-(2-{[3-chloro-5-(5,6-dihydro-1,4-dioxin-2-yl)phenyl]amino}ethyl)phenyl]ethyl}-2-(hydroxymethyl)piperidine-3,4,5-triol], the concentration for half-maximal inhibition (IC50) was found to be 84 nM in experiment [1], 729 nM in experiment [2] (setting [4]) and 740 nM in experiment [3].
For the compound `OC[C@@H]1[C@@H](O)[C@H](O)[C@@H](O)CN1CCc1ccc(CCNc2cc(Cl)cc(-c3ncccn3)c2)cc1` [Compound 1162, (2R,3R,4R,5S)-1-{2-[4-(2-{[3-chloro-5-(pyrimidin-2-yl)phenyl]amino}ethyl)phenyl]ethyl}-2-(hydroxymethyl)piperidine-3,4,5-triol], the IC50 was 62 nM in experiment [1], 508 nM in experiment [2] (setting [4]) and 476 nM in experiment [3].
The like results for `COc1cc(NCCc2ccc(CCN3C[C@H](O)[C@@H](O)[C@H](O)[C@H]3CO)cc2)cc(-c2ccco2)c1` [Compound 1153, (2R,3R,4R,5S)-1-{2-[4-(2-{[3-(furan-2-yl)-5-methoxy-phenyl]amino}ethyl)phenyl]ethyl}-2-(hydroxymethyl)piperidine-3,4,5-triol] were, in that order, 57 nM, 1360 nM and 2500 nM.
